Laboratory results published in patent US10624914B2, “Methods for determining the level of hyposialylation of Angptl4” (priority 2010, dated 2020).
Entries after “also recorded” stand apart in the source; their conditions may differ.

Legend:
[1] = test system: NPHS2-Angptl4 TG rats; assay: Albuminuria in NPHS2-Angptl4 TG rats given ManNAc in tap water; format: in vivo, rat
Source text: Transgenic rats were generated by microinjection of the digested DNA constructs into fertilized Sprague Dawley eggs (conducted at University of Michigan), implantation into pseudopregnant host Sprague Dawley females, and the resulting offsprings were genotyped by routine PCR and TaqMan genomic DNA real time PCR strategy using construct specific and control genomic prolactin primer and probe combinations. Two founder lines for podocyte specific expression were generated. Data from NPHS2-Angptl4 TG rat line 740 (5 copies of the transgene) and were stable over 4 generations, are presented. Urinary total protein was assessed using the Bradford method (Biorad laboratories, Hercules Calif. USA), and albuminuria by ELISA (Bethyl laboratories, Montgomery Tex. USA).
To make the study affordable, 7 homozygous male NPHS2-Angptl4 rats, age 3-3.5 months, with 15-25 fold higher albuminuria than wild type rats, were given ManNAc 1 mg/ml of tap water for 12 days (ManNAc phase), after which three were euthanized and the others returned to plain tap water for another 24 days (washout phase). 18 hour urine collections were done twice (Day- 12 and Day 0) before the study to confirm rising albuminuria, and periodically during the study. Another seven male NPHS2-Angptl4 rats of similar age were assessed for baseline albuminuria levels, given normal tap water (control group), three euthanized on Day 12 and others followed up to day 36, after which albuminuria was reassessed and the animals euthanized. Daily water intake of each rat was charted. At each euthanasia time point, kidneys were removed after perfusion, glomeruli isolated and processed for 2D gel electrophoresis. Albuminuria on Day 0 for each rats was denoted as 100% and all subsequent albuminuria values were expressed relative to Day 0.

[2] = test system: Angptl4; assay: 2D gel electrophoresis, Western blot and densitometry of glomerular Angptl4 from ManNAc fed NPHS2-Angptl4 TG rats; format: in vivo, rat
Source text: The following techniques are described in prior publications: Taqman real time PCR (26), confocal imaging (7), in situ hybridization (27), promoter—reporter studies (7), immunogold EM (26), glomerular extraction and processing for Western blot (26), assessment of charge by PEI method (28); the foregoing references are hereby incorproated by reference for such teachings. For alcian blue staining, the pH of the staining solution was adjusted to 2.5 using acetic acid, and 0.1% nuclear fast red solution was used as a counterstain. Densitometry of glomerular basement membrane alcian blue stain (20 glomeruli/rat, 3 rats/group) was assessed using Image-Pro software (Media Cybernetics, Inc., Bethesda Md., USA). Densitometry of 2D gel Western blots was assessed using Gel-Pro Analyzer software (Media Cybernetics, Inc.). For in situ hybridization, the digoxigenin labeled probe for rat Angptl4 included bp 1 to 548 of the ORF.
To study the effect of manNAc on the sialylation of recombinant protein, the Angptl4-HEK293 stable or pcDNA3.1-HEK293 control stable cell lines were grown to confluence in 15 cm dishes, washed twice with warm PBS, then incubated with serum free DMEM without phenol red with or without 25 mM manNAc for 48 hours, after which the media was harvested, concentrated, protein assay conducted, and loaded on the 2D gels (200 μg/gel). […]
To make the study affordable, 7 homozygous male NPHS2-Angptl4 rats, age 3-3.5 months, with 15-25 fold higher albuminuria than wild type rats, were given ManNAc 1 mg/ml of tap water for 12 days (ManNAc phase), after which three were euthanized and the others returned to plain tap water for another 24 days (washout phase). […] Another seven male NPHS2-Angptl4 rats of similar age were assessed for baseline albuminuria levels, given normal tap water (control group), three euthanized on Day 12 and others followed up to day 36, after which albuminuria was reassessed and the animals euthanized. […]

[3] = test system: Angptl4; assay: Sialylation of recombinant Angptl4 in Angptl4-HEK293 stable cell line incubated with ManNAc; format: cell-based, rat; conditions: ManNAc 25 mM, 48 hours
Experimental: To study the effect of manNAc on the sialylation of recombinant protein, the Angptl4-HEK293 stable or pcDNA3.1-HEK293 control stable cell lines were grown to confluence in 15 cm dishes, washed twice with warm PBS, then incubated with serum free DMEM without phenol red with or without 25 mM manNAc for 48 hours, after which the media was harvested, concentrated, protein assay conducted, and loaded on the 2D gels (200 μg/gel). Western blots of glomeruli or recombinant protein were conducted using rabbit anti-Angptl4 (full length) antibody, preimmune rabbit serum and lectins SNA I-HRP and MAA-HRP (E-Y laboratories, San Mateo Calif. USA).

[4] = test system: rats with puromycin aminonucleoside nephrosis (PAN model); assay: Nephrotic syndrome parameters in puromycin aminonucleoside nephrosis (PAN model) rats treated with ManNAc; format: in vivo, rat; conditions: ManNAc 80 mg/Kg body weight in tap water from Day 4, Day 6
Experimental: FIGS. 7A-D show improvement in nephrotic syndrome parameters in ManNAc treated rats with puromycin aminonucleoside nephrosis (PAN model). In FIGS. 7A-7D, rats (n=5 rats/group) received a single intravenous injection of puromycin aminonucleoside (10 mg/100 gm), and were treated with ManNAC 80 mg/Kg body weight in tap water starting on Day 4, which coincides with the onset of proteinuria.
Rats (n=5 rats/group) received a single intravenous injection of puromycin aminonucleoside (10 mg/100 gm), and were treated with ManNAC 80 mg/Kg body weight in tap water starting on Day 4, which coincides with the onset of proteinuria. Data from Day 6 is shown.

[5] = test system: Zucker Diabetic Fatty rats; assay: Proteinuria in Zucker Diabetic Fatty rats treated with ManNAc; format: in vivo, rat; conditions: 13 week old male rats, ManNAc in tap water, 70 mg/Kg up to 20 days and 140 mg/Kg, vs plain tap water
Experimental: 13 week old male Zucker Diabetic Fatty rats were treated with ManNAc in tap water or with plain tap water (n=4 rats/group) at 70 and 140 mg/Kg.
These high pI hyposialylated forms of Angptl4 are sensitive to sialic acid precursor therapy, including ManNAc and ManNAc derivatives. […] In FIG. 8C, 13 week old male Zucker diabetic fatty rats were treated with ManNAc in tap water or with plain tap water (n=4 rats/group).

[6] = test system: mouse Angptl4 promoter; assay: Angptl4 promoter-reporter (SEAP) study in HEK 293 cells and GECs; format: cell-based; conditions: mifepristone 2×10^−5 M, glucocorticoid receptor antagonist
Experimental: We conducted 5′ RACE and primer extension analysis using mouse kidney mRNA and confirmed the same transcriptional start site in the kidney. Next, a 2 Kb fragment upstream of the transcriptional start site was clone using BAC clone RP23-27D5 as a template into pSEAP2 basic. A 2 Kb human Angptl4 promoter constructs were similarly generated using BAC clone RP11-886P16.
Incubation of HEK 293 cells and GECs transfected with Angptl4-pSEAP or empty vector promoter—reporter constructs for mouse Angptl4 with dexamethasone (10^−3 M) show a decline in SEAP activity at 48 hours. This decline in activity is mediated via the glucocorticoid receptor, since it is reversed by the receptor antagonist mifepristone (2×10^−5 M). Glucocorticoid sensitivity of the human promoter was also assessed (dexamethasone 10^−4 M). All transfection reactions were normalized using the pβgal vector (Clontech, Mountain View Calif. USA).

Row | Structure (SMILES) | 18 hour albuminuria, nadir on Day 12 ([1]; 1 mg/ml ManNAc in tap water for 12 days, Day 0 = 100%) | albuminuria (effect in words) ([1]; ManNAc 1 mg/ml in tap water for 12 days) | reduction in albuminuria compared to baseline ([1]; ManNAc 1 mg/ml in tap water, over a 12 day period) | albuminuria after washout ([1]; after 12 days of washout following 12 days ManNAc 1 mg/ml) | reduction in albuminuria maintained ([1]; pilot studies, heavily albuminuric NPHS2-Angptl4 rats, ManNAc 8 mg/ml tap water) | albuminuria (effect in words) ([1]; pilot studies, heavily albuminuric rats, increasing doses of ManNAc (1 to 8 mg/ml)) | percentage of neutral pI forms of Angptl4 (effect in words) ([2]; Day 12, ManNAc fed rats vs control TG rats) | sialylation of glomerular Angptl4 (reactivity with lectin SNA I) ([2]; Day 12, ManNAc treated rats) | neutral pI Angptl4 fraction (densitometry of Western blots, glomerular Angptl4) ([2]; rats euthanized on Day 12, ManNAc 1 mg/ml) [%] | reactivity of Angptl4 to sialic acid binding lectin MAA [3] | sialylation of Angptl4 [3] | electrophoretic migration (pI) of secreted Angptl4 ([3]; serum free, concentrated supernatant) | hypercholesterolemia (cholesterol) [4] | hypertriglyceridemia (triglycerides) [4] | plasma albumin levels [4] | proteinuria ([4]; vs control PAN rats) | proteinuria [5] | dexamethasone-induced decline in SEAP activity [6]
1 | CC(=O)N[C@@H]1C(O)O[C@H](CO)[C@@H](O)[C@@H]1O (stereo partly drawn) [ManNAc, N-acetylmannosamine] | 59.4±3.3 % of baseline | reduced albuminuria; also recorded: significant reduction | over 40% | returned towards baseline values | 20-30% | reduced albuminuria | significant increase | increased sialylation | 72.9 ± 1.4 | increased reactivity | increased sialylation | shift of the protein towards neutral pI; also recorded: shift from high pI forms | significant reduction | significant reduction | significant improvement | significant reduction | Significant reduction | 
2 | CC#C[C@]1(O)CC[C@H]2[C@@H]3CCC4=CC(=O)CCC4=C3[C@@H](c3ccc(N(C)C)cc3)C[C@@]21C [mifepristone] |  |  |  |  |  |  |  |  |  |  |  |  |  |  |  |  |  | reversed
